Key:
[1] = test system: A549 human lung cancer cells; experiment: Cell viability assay (trypan blue), lung cancer cells, second set; assay type: cell-based; details: 14 μm compound; approximately 5×10^5 cells seeded; seven days after treatment
Description: A549 human lung cancer cells,
(§1) These cells were maintained in Dulbecco's modified Eagle medium (DMEM) supplemented with 10 percent bovine calf serum.
(§2) Cells were seeded for 24 hours. Then they were either treated with Gö6976, C-o 002, or C-o 003, or left untreated. The cells were then collected periodically and evaluated using trypan blue dye exclusion to asses viability using the method described by CY Chen, et al, in J.Biol. Chem. 273:16700-16709.
(§3) Two sets of approximately 5×10^5 human MDA-MB-468 breast cancer cells, DU145 human prostate cancer cells, A549 lung cancer cells, AGS gastric cancer cells, and T84 colorectal cancer cells were seeded and treated with 14 μm C-o 002 and C-o 003 24 hours later. Seven days after treatment, viable cells were counted.

[2] = test system: MDA-MB-468 human breast cancer cells; experiment: Cell viability assay (trypan blue), breast cancer cells, second set; assay type: cell-based; details: 14 μm compound; approximately 5×10^5 cells seeded; seven days after treatment
Description: MDA-MB-468 human breast cancer cells
as §1, §2, §3

[3] = test system: HepG2 human liver cancer cells; experiment: Cell viability assay (trypan blue), liver cancer cells, second set; assay type: cell-based; details: seven days after treatment
Description: HepG2 human liver cancer cells,
as §1, §2
(§4) Two sets of approximately 5×10^5 DU145 prostate cancer cells, HepG2 liver cancer cells, AGS gastric cancer cells, and T84 colorectal cancers were seeded and 24 hours later one of the sets were treated with 2 μm Gö6976. Seven days after treatment, viable cells were counted.
as §3

[4] = test system: DU145 human prostate cancer cells; experiment: Cell viability assay (trypan blue), prostate cancer cells, second set; assay type: cell-based; details: approximately 5×10^5 cells seeded, seven days after treatment
Description: DU145 human prostate cancer cells,
as §1, §2, §4, §3

[5] = test system: AGS human gastric cancer cells; experiment: Cell viability assay (trypan blue), gastric cancer cells, second set; assay type: cell-based; details: approximately 5×10^5 cells seeded, seven days after treatment
Description: AGS human gastric cancer cells,
as §1, §2, §4, §3

[6] = test system: T84 human colorectal cancer cells; experiment: Cell viability assay (trypan blue), colorectal cancer cells, second set; assay type: cell-based; details: approximately 5×10^5 cells seeded, seven days after treatment
Description: T84 human colorectal cancer cells,
as §1, §2, §4, §3

[7] = test system: HL60 human acute promyelocytic leukemia cells; experiment: Cell viability assay (trypan blue), leukemia cells; assay type: cell-based; details: 2 micromoles Gö6976; 5×10^5 cells at start; after four days (FIG. 4)
Description: HL60 human acute promyelocytic leukemia cells were grown in RPMI 1640 medium containing 10 percent heat-inactivated fetal bovine serum (FBS).
(§5) Cells were seeded for 24 hours. Then they were either treated with Gö6976 or left untreated. The cells were then collected periodically and evaluated using trypan blue dye exclusion to asses viability using the method described by CY Chen, et al, in J.Biol. Chem. 273:16700-16709.
One of two samples of 5×10^5 cells was treated with 2 micromoles of Gö6976 and the viable cells were counted after four days. At four days the cells in the untreated sample had grown by a factor of nearly 10 to almost 5×10^6 cells whereas viable cells in the treated sample was less than 0.2×10^5.

[8] = test system: C6 glioma cells; experiment: Cell growth, brain tumor cells, second set; assay type: cell-based; details: 2 μm Gö6976 for 7 days; approximately 5×10^5 cells seeded (FIG. 10)
Description: as §1, §2
(§6) Two sets of approximately 5×10^5 C6 glioma cells and Hela cervical cancer cells were seeded and treated or untreated with 2 μm Gö6976 for 7 days.

[9] = test system: Small cell lung cancer cells (NCI-H048); experiment: Cell viability assay (trypan blue), small cell lung cancer cells; assay type: cell-based; details: treated with Gö6976 (concentration not given); about 5×10^5 cells at start; day 4 (FIG. 5)
Description: Small cell lung cancer cells (NCI-H048),
(§7) Small cell lung cancer cells were grown in RPMI 1640 medium with 2 mM L-glutamine adjusted to contain 1.5 g/L sodium bicarbonate, 4.5 g/L glucose, 10 mM HEPES, 1.0 mM sodium pyruvate, and 5% fetal bovine serum. Non-small cell lung cancer cells were grown in RPMI 1640 medium supplemented with 5% fetal bovine serum, 5 ug/ml insulin, 10 ug/ml transferrin, 30 nM sodium selenite, 10 nM hydrocortisone, 10 nM beta-estradiol, 10 mM HEPES, and 2 mM L- glutamine.
as §5
(§8) Two samples each of about 5×10^5 cells small lung cancer cells and non-small lung cancer cells were prepared and one sample of each type was treated with Gö6976 and the viable cells were counted at day 4. In the untreated samples the cancer cells had multiplied by almost a factor of 10 and in the treated samples the count had decreased to less than 0.5 of the original count.

[10] = test system: 3Y1 cells overexpressing EGF receptors; experiment: Anchorage-independent cell growth in soft agar (EGF-induced colony formation); assay type: cell-based, rat; details: 100 ng/ml EGF and 250 nanamoles Gö6976; three weeks in soft agar (FIG. 8)
Text: (§9) 3Y1 rat fibroblast cells overexpressing the epidermal growth factor receptor (EGFR).
For growth of these cells in soft agar, 1×10^3 cells were suspended in top agar (consisting of 20 percent calf serum, 0.38 percent agar and the remainder DMEM) and overlaid onto hardened bottom agar (DMEM, 20 percent calf serum and 0.7 percent agar) as reported by Sementchenko et al, in Onocgen 17:2883-2888.
The effect of Gö6976 on blocking EGF-induced cell transformation was further confirmed by checking anchorage-independent cell growth. […] One sample was left untreated, one was treated with 100 ng/ml of EGF, one sample was treated with 100 ng/ml of EGF and 250 nanamoles of Gö6976 and one sample was treated with 250 nanaomoles of Gö6976. In each case the percentage of cell forming colonies were determined three weeks after suspending the cells in soft agar.

[11] = test system: Hela human cervical cancer cells; experiment: Cell growth, cervical cancer cells, second set; assay type: cell-based; details: 2 μm Gö6976 for 7 days; approximately 5×10^5 cells seeded (FIG. 10)
Description: Hela human cervical cancer cells
as §1, §2, §6

[12] = test system: Non-small cell lung cancer cells (NCI-H2342); experiment: Cell viability assay (trypan blue), non-small cell lung cancer cells; assay type: cell-based; details: treated with Gö6976 (concentration not given); about 5×10^5 cells at start; day 4 (FIG. 5)
Description: Non-small cell lung cancer cells (NCI-H2342).
as §7, §5, §8

[13] = test system: normal cells including rat 3Y1 fibroblast; experiment: Toxic effects on normal cells; assay type: cell-based
Text: Toxic effects begin to show up at concentrations of about 5 micromoles in these types of cells.

[14] = test system: PKC α; details: cited from earlier work
[15] = test system: U-2 OS human osteosacoma cells; experiment: Cell viability assay (trypan blue), osteosarcoma cells; assay type: cell-based; details: 2 micromoles Gö6976; about 5×10^5 cells at start; after four days (FIG. 6)
Description: U-2 OS human osteosacoma cells,
as §1, §5
One of two samples of about 5×10^5 cells was treated with 2 micromoles of Gö6976 and the viable cells were counted after four days.

[16] = test system: A431 human epidermoid carcinoma cells; experiment: Cell viability assay (trypan blue), epidermoid carcinoma cells; assay type: cell-based; details: 2 micromoles Gö6976; about 5×10^5 cells at start; at four days; untreated grew by a factor of about 24 (FIG. 7)
Description: A431 human epidermoid carcinoma cells,
as §1, §5
One of two samples of about 5×10^5 cells was treated with 2 micromoles of Gö6976 and the viable cells were counted each 24 hours for four days.

[17] = test system: human breast cancer cells (MDA-MB-468 and MDA-MB-453); experiment: Cell viability assay (trypan blue dye exclusion), breast cancer cells, first set; assay type: cell-based; details: for viable cell count: about 5×10^5 cells at start, counted at day 4 (FIG. 2)
Description: MDA-MB-468 human breast cancer cells,
MDA-MB-453 human breast cancer cells,
as §1, §5
In both FIG. 2 and FIG. 3 error bars indicated the estimated standard error based on three independent experiments.

[18] = test system: 3Y1 cells overexpressing EGF receptors; experiment: EGF-induced cell transformation (morphology); assay type: cell-based, rat
Text: as §9, §1

With `NCCCn1c2ccccc2c2c3c(c4c5ccccc5[nH]c4c21)CNC3` [C-o 002, 12-(3-Aminopropyl)-5,6,7,12,13-pentahydro-indolo[2,3,-a] pyrrolo [3,4-c] carbazole] the viable cells counted [1] was 7 × 10^5, the viable cells counted [2] was 0 and the viable cells counted ([3]; 14 μm compound) was 0. The viable cells counted ([4]; 14 μm compound) was 0, the viable cells counted ([5]; 14 μm compound) was 0 and the viable cells counted ([6]; 14 μm compound) was 1.9 × 10^4.
In the case of `Cl.NCCCn1c2ccccc2c2c3c(c4c5ccccc5[nH]c4c21)CNC3` [C-o 003, 12-(3-Aminopropyl)-5,6,7,12,13-pentahydro-indolo[2,3,-a] pyrrolo [3,4-c] carbazole hydrochloride], the viable cells counted [1] was 8.5 × 10^5, the viable cells counted [2] was 0 and the viable cells counted ([3]; 14 μm compound) was 0. The viable cells counted ([4]; 14 μm compound) was 0, the viable cells counted ([5]; 14 μm compound) was 0 and the viable cells counted ([6]; 14 μm compound) was 2.7 × 10^4.
For `Cn1c2ccccc2c2c3c(c4c5ccccc5n(CCC#N)c4c21)CNC3=O` [Gö6976, 12-(2-Cyanoethyl)-6,7,12,13-tetrahydro-13-methyl-5-oxo-5H-indolo[2,3-a]pyrrolo[3,4-c]carbazole], the “viable cells in the treated sample” value [7] was “less than 0.2×10^5”, the cell growth [8] was “significant inhibited the growth” and the “viable cell count relative to the original count” value [9] was “less than 0.5”. The “colony forming efficiency of EGF (percentage of cell forming colonies)” value [10] was “greatly reduced”, the cell growth [11] was “significant inhibited the growth” and the “viable cell count relative to the original count” value [12] was “less than 0.5”. For the same compound, the viable cells counted ([3]; 2 μm Gö6976, approximately 5×10^5 cells seeded) was 0, the viable cells counted ([4]; 2 μm Gö6976) was 0 and the “toxic effects on normal cells” value ([13]; concentrations used in the first set of experiments) was “no significant toxic effects”. The “concentration at which toxic effects begin to show up” value ([13]; normal cells) was “about 5 micromoles”, the “TPA-induced downregulation of PKC α” value [14] was “prevented TPA-induced downregulation” and the viable cells counted ([5]; 2 μm Gö6976) was 0. The “viable cells in the treated sample relative to the original count” value [15] was “reduced to about half the original count”, the “viable cells in the treated sample relative to the original count” value [16] was “approximately doubled” and the viable cell count ([17]; 1 micromole Gö6976) was “about 1×10^5”. The viable cell count ([17]; 2.0 micromolar Gö6976) was “less than 0.3×10^5”, the “viable cell concentration over time” value ([17]; 2.0 micromoles Gö6976, measured at 24 hours intervals for 4 days (FIG. 3)) was “reduced by approximately half each 24 hours” and the viable cells counted ([6]; 2 μm Gö6976) was 1.1 × 10^4. For the same compound, the “toxic effect on 3Y1 EGFR cells” value ([18]; Gö6976 alone) was “did not show any toxic effect” and the “EGF-induced cell transformation (transformed morphology)” value ([18]; co-treatment with 250 nanamoles Gö6976 and 100 ng/ml EGF, 24 hours) was “completely blocked”.

— patent publication US6696478B2, “Cancer treatment with Gö6976 and its related compounds” (priority 1999, dated 2004)
